In the NIST ThermoML archive (doi:10.1021/je700088n):
Numbers after ± are expanded uncertainties.

Legend:
[1] = Crystal; for Normal melting temperature: DTA; for mass density: 298.1 K, 101.33 kPa, digital densimeter
[2] = Molar enthalpy of transition or fusion; conditions: Crystal; DSC

SMILES | Normal melting temperature [1] [°C] | Molar enthalpy of transition or fusion [2] [kcal/mol] | mass density [1] [kg/m3]
Cc1ccc(C)c2ccccc12 [1,4-dimethylnaphthalene] | 6.00 ± 0.5 | 2.53 ± 0.0884 | –
Cc1cccc2c(C)cccc12 [1,5-dimethylnaphthalene] | 82.00 ± 0.5 | 4.78 ± 0.143 | –
Cc1ccc2c(C)cccc2c1 [1,6-dimethylnaphthalene] | -16.20 ± 0.5 | 2.03 ± 0.0741 | –
Cc1cccc2cccc(C)c12 [1,8-dimethylnaphthalene] | 65.00 ± 0.5 | 4.43 ± 0.134 | –
Cc1cccc2ccccc12 [1-methylnaphthalene] | -30.9 ± 0.5 | – | –
Cc1cc2ccccc2cc1C [2,3-dimethylnaphthalene] | 104.00 ± 0.5 | 5.73 ± 0.167 | 1012 ± 10
Cc1ccc2cc(C)ccc2c1 [2,6-dimethylnaphthalene] | 112.00 ± 0.5 | 6.05 ± 0.174 | 1021 ± 10
Cc1ccc2ccc(C)cc2c1 [2,7-dimethylnaphthalene] | 97.00 ± 0.5 | 5.31 ± 0.158 | 1010 ± 10
Cc1ccc2ccccc2c1 [2-methylnaphthalene] | 34.70 ± 0.5 | – | –
